# Results as given in patent publication EP0326134A1, “4-Amino-2,3-disubstituted-6,7-dihydro-5H-1-pyridine derivatives, process for their preparation and medicaments containing them” (NAUCHNO-ISSLEDOVATELSKY INSTITUT TEKHNOLOGII I BEZOPASNOSTI …, priority 1988, dated 1989).
# Where two headings read alike, the source gives them in different places.
# Experiments:
# Wirkung von Hexenal = assay: Influence on the effect of Hexenal; assay type: in vivo, Mäusen; conditions: mice
# [1] = Acute toxicity, single intraperitoneal injection, probit analysis (LD50); assay type: in vivo, Mäusen; conditions: mice, i.p.
# Text: Ihre akute Toxizität wurde an Mäusen (einmalige intraperitoneale Injektion) nach der Methode der Probit-Analyse nach Zichtfield, Wilcoxon, t949 untersucht. In Tabelle 2 sind die Parameter der akuten Toxizität (LDso) angegeben, die eine mäßige Toxizität der erfindungsgemäßen Verbindungen belegen.
# Orientierungsaktivität = assay: Influence on orientation activity; assay type: in vivo, Mäusen; conditions: mice
# Text: Von Interesse ist der Einfluß der erfindungsgemäßen Verbindungen auf das ZNS und das Verhalten der Tiere. Alle Verbindungen zeigen eine Kombination von stimulierenden und sedativen Eigenschaften und bei höheren Dosen auch eine m-cholinomimetische Wirkung, wobei Tremor, Speichelfluß und Diarrhoe ausgelöst werden.
# Zahl der Krämpfe = assay: Writhing test (intraperitoneal acetic acid); assay type: in vivo, Mäusen; conditions: male mice
# Text: Die analgetische Wirkung der erfindungsgemäßen Verbindungen wurde an männlichen Mäusen anhand des "Krampf"-Tests (Writhing-Tests) unter intraperitonealer Injizierung von Essigsäure und des Hot-plate-Tests untersucht. Im ersten Falle wurde die analgetische Wirkung der Verbindungen anhand der prozentualen Verringerung der Zahl der Krämpfe ermittelt. Beim zweiten Test wurde die Schwelle der Schmerzempfindlichkeit (Ablecken der Pfoten) bestimmt. Die stärkste analgetische Wirkung der erfindungsgemäßen Verbindungen zeigte sich beim "Krampf"-Test. Dabei übertrafen die Salze der bicyclischen Basen Amyridin, aber nicht alle erfindungsgemäßen Verbindungen waren schwächer als Morphin (s. Tabelle 4).
# [2] = system: isolierten Präparaten des rechten Vorhofs von Kaninchen; assay: Antiarrhythmic effect on isolated right atrium preparations (microelectrodes: AP duration, refractory period R, e/R); conditions: isolated right atrium of rabbit; for Antiarrhythmische Wirkung: Verlängerung d. Refraktärzeit (R), in %: microelectrodes
# Text: (§1) Die antiarrhythmische Wirkung der erfindungsgemäßen Verbindungen wurde in zwei Versuchsserien untersucht, und zwar an isolierten Präparaten des rechten Vorhofs von Kaninchen und mit Hilfe des Calciumchlorid-Arrhythmie-Modells an Ratten. In den Versuchen an den isolierten Präparaten des rechten Vorhofs wurden mit Hilfe von Mikroelektroden die Dauer des AP sowie der Refraktärzeit (R) und die maximale Hemmung (e) und der Parameter (e/R) untersucht, durch den die Anfälligkeit des Myokards gegenüber der Entstehung von Arrhythmien gekennzeichnet wird. In den Versuchen an Ratten wurden diesen Calciumchlorid in einer Dosierung von 250 mg/kg injiziert. Registriert wurden das Vorliegen von Kammerflimmern und die Lebensdauer der Tiere. Sämtliche erfindungsgemäßen Verbindungen üben eine mäßige antiarrhythmische Wirkung aus. Sie steigern die Refraktärzeit des Muskels und des AP um 35 bis 145 % und verringern gleichzeitig die Anfälligkeit des Myokards, ausgedrückt durch den Parameter e/R um 10 bis 80 % (s. Tabelle 4). In bezug auf diese Wirkung waren die Salze der bicyclischen Basen wirksamer als Amyridin. Bezüglich des Vermögens, die Tiere vor Kammerflimmern und vor dem Tod nach Verabreichung von 250 mg/kg Calciumchlorid zu schützen, waren diese Verbindungen ebenfalls am stärksten wirksam. Bei Verwendung des Calciumchlorid-Arrhythmie-Modells waren viele erfindungsgemäßen Verbindungen stärker wirksam als das klassische Antiarrhythmikum Chinidin (s. M.D. Ma s kovskij, Lekarstvennye sredstva, Bd. 1, S. 401, Moskau, Medicina, 1984).
# [3] = system: Nerven-Muskel-Präparat von Mäusen (n.peroneus-m.extensor digitorum longus); assay: Neuromuscular transmission in isolated nerve-muscle preparation (EPP, minEPP); conditions: for Stimulierung der Nerven-Muskelübertragung, in % der Amplitude: EPP: EPP = Endplattenpotential
# Text: Der Einfluß der Stoffe auf die Nerven-Muskei-Übertragung wurde am isolierten Nerven-Muskel-Präparat von Mäusen (n.peroneus-m.extensor digitorum longus) (s. Bhattacharyya B. et al. "Neuromuscular blocking action of two hemicholinium-3 analogs" Europ. J. Pharmac. 146, 155-165 /1988/) untersucht, das von Lilly-Lösung perfundiert wurde, durch die man ein Gemisch von 02 und C02 leitete. […] Das Endplattenpotential (EPP) und das Endplattenminiaturpotential (minEPP) wurden mit Hilfe eines Magnetografen aufgezeichnet und danach mit dem Computer ausgewertet. Ermittelt wurden die Frequenz (f), die Amplitude (A) und die Dauer (t) der minEPP und der EPP (s. Tabelle 2).
# [4] = system: Calciumchlorid-Arrhythmie-Modells; assay: Calcium chloride arrhythmia model (250 mg/kg): ventricular fibrillation, survival; assay type: in vivo, Ratten; conditions: rats, calcium chloride 250 mg/kg
# Text: as §1
# [5] = system: durch Skopolamin hervorgerufene Amnesie; assay: Dark avoidance assay (passive avoidance), scopolamine-induced amnesia; assay type: in vivo, Mäusen; conditions: for Einfluß auf das Gedächtnis: Zahl der Tiere in %, bei denen die Skopolaminwirkung aufgehoben wurde: mice, compound s.c. 5 min before learning, Skopolamin i.p. 30 min before
# Procedure: Die Mäuse wurden dabei in den hellen Abschnitt der Kammer gegeben, wonach die Latenzzeit für den Übertritt in die dunkle Kammer, in der die Tiere einem Stromschlag von 0,5 mA ausgesetzt waren, registriert wurde. Danach erhöhte sich die Latenzzeit für den Übertritt in den dunklen Abschnitt und verringerte sich die Aufenthaltsdauer. 30 Minuten vor dem Versuch wurden den Mäusen i.p. […] Gedächtnisstörungen hervorrufendes Skopolamin als Cholinblocker injiziert. Die erfindungsgemäßen Verbindungen wurden s.c. 5 Minuten vor dem Lernvorgang injiziert. Das Skopolamin verkürzt die Latenzzeit für den Übertritt in die dunkle Kammer, die erfindungsgemäßen Verbindungen stellen jedoch die Latenzzeitwerte wie bei der Kontrollgruppe wieder her oder bedingen ein geringfügiges Überschreiten dieser Werte (siehe Tabelle 2). Gleichzeitig wird die Aufenthaltsdauer der Tiere im dunklen Abschnitt der Kammer auf 36 bis 45 Hundertstel des Ausgangswerts verringert.
# [6] = Side effects and CNS/behaviour: tremor (TD50), sedative and m-cholinomimetic effects; assay type: in vivo
# Text: Von Interesse ist der Einfluß der erfindungsgemäßen Verbindungen auf das ZNS und das Verhalten der Tiere.
# [7] = target: T1, Acetylcholinesterase menschlicher Erythrozyten (Homo sapiens, UniProt P22303); assay: Acetylcholinesterase inhibition, spectrophotometric; assay type: biochemical
# T1 construct: Acetylcholin-esteraseinhi-bierung bei menschlichen Erythrozyten; from tissue; host or cells: human erythrocytes
# T1 sequence (P22303 other isoform, or with tags, fused parts or gaps): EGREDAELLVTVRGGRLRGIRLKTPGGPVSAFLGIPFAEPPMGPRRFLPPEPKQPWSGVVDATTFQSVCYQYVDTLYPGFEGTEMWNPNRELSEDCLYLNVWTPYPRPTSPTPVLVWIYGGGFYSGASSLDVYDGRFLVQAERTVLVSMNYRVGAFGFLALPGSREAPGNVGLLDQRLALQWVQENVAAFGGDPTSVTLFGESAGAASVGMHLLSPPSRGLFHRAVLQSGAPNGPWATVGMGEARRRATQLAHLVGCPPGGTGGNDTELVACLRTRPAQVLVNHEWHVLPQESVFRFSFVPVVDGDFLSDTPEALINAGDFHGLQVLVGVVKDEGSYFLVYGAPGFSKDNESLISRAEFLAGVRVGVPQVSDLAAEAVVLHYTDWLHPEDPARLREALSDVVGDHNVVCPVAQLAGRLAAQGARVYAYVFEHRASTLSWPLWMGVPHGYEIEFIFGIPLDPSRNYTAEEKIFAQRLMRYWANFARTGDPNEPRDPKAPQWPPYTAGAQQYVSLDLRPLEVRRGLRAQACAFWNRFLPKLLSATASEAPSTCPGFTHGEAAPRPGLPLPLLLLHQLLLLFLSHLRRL
# Text: Untersucht wurden die Wirkmechanismen der erfindungsgemäßen Verbindungen: • 1. Die Wirkung auf Acetylcholinesterase menschlicher Erythrozyten auf spektrofotometrischem Wege. • 2.
# [8] = ED50 = dose blocking the effect of Skopolamin in 50 % of the animals (passive avoidance, mice)
# [9] = toxic dose causing tremor in 50 % of the animals
# [10] = Acetylcholinesteraseinhibierung bei menschlichen Erythrozyten IK, (Mol), human erythrocyte enzyme
Compound,"Änderung der Dauer der Seitenlage, in %: Hexenal 60 mg/kg (Wirkung von Hexenal)",LD50 [1],"Änderung der Orientierungsaktivität, in % (Orientierungsaktivität)","Analgetische Wirkung: Abnahme d. Zahl der ""Krämpfe"" bei Mäusen, in % (Zahl der Krämpfe)","Antiarrhythmische Wirkung: Verlängerung d. Refraktärzeit (R), in % [2]","Antiarrhythmische Wirkung: Abnahme d. Parameters θ/R, in % ([2]; parameter marks susceptibility of the myocardium to arrhythmia)","Stimulierung der Nerven-Muskelübertragung, in % der Amplitude: EPP [3]","Stimulierung der Nerven-Muskelübertragung, in % der Amplitude: minEPP [3]","Antiarrhythmische Wirkung: Verlängerung d. Lebensdauer von Ratten an Hand des CaCl2-Arrhythmie-Modells, in % [4]","Einfluß auf das Gedächtnis: Zahl der Tiere in %, bei denen die Skopolaminwirkung aufgehoben wurde [5]","Verhältnis TD50 zu ED50 [6, 8]","TD50 (Tremor) [6, 9]","Ki [7, 10]","Ki ([7]; read-out: Acetylcholinesteraseinhibierung bei menschlichen Erythrozyten IK, (Mol), human erythrocyte enzyme)","LD50 ([1]; mouse, in vivo, ip, read-out: LD50)","antiamnestische Wirkung ([5]; in words, compared with Amyridin)","selectivity ratio ([6]; in vivo, ED50 = dose blocking the effect of Skopolamin in 50 % of the animals (passive avoidance, mice), read-out: Verhältnis TD50 zu ED50)","TD50 ([6]; in vivo, toxic dose causing tremor in 50 % of the animals)"
"4-Amino-2,3-dimethyl-6,7-dihydro-5H-1-pyrindinsalicylat [Verbindung 8]",0%,17 mg/kg,0%,70%,100%,58%,40%,75%,190%,70%,6,8 mg/kg,,,,,,
Cc1nc2c(c(N)c1C)CCC2 [Verbindung 2],+35%,15 mg/kg,-15%,70%,130%,,45%,85%,160%,75%,"12,5",5 mg/kg,48 nM,,,,,
Cc1nc2c(c(N)c1C)CCC2 [Verbindung 3],0%,17 mg/kg,-8%,90%,115%,,55%,110%,190%,80%,20,7 mg/kg,180 nM,,,,,
Cc1nc2c(c(N)c1C)CCC2 [Verbindung 4],0%,15 mg/kg,0%,80%,90%,,40%,85%,180%,70%,11,"5,5 mg/kg",240 nM,,,,,
Cc1nc2c(c(N)c1C)CCC2 [Verbindung 5],0%,25 mg/kg,-10%,90%,110%,,40%,90%,130%,60%,13,9 mg/kg,660 nM,,,,,
Cc1nc2c(c(N)c1C)CCC2 [Verbindung 17],,24 mg/kg,,,,,43%,75%,,72%,"7,1",10 mg/kg,390 nM,,,,,
Cc1nc2c(c(N)c1C)CCC2 [Verbindung 18],,16 mg/kg,,,,,45%,80%,,70%,6,9 mg/kg,145 nM,,,,,
CCc1c(C)nc2c(c1N)CCC2 [Verbindung 22],,32 mg/kg,,,,,25%,60%,,70%,4,12 mg/kg,,,,,,
Cc1nc2c(c(N)c1-c1ccccc1)CCC2 [Verbindung 32],,,,,,,20%,45%,,50%,,,,50000 nM,18 mg/kg,ausgenommen,2.6,10 mg/kg
